# Assay results reported in PMC3187749, “Discovery of Diverse Small Molecule Chemotypes with Cell-Based PKD1 Inhibitory Activity” (PLoS ONE, 2011).
# Like-named read-outs stand apart in the source and are kept apart here.
# Columns and labels:
# [1] = molecular target: T1, recombinant human PKD1 (Homo sapiens, UniProt Q15139); conditions: cited from earlier work
# T1 construct: His; purchased Millipore (Billerica, MA)
# T1 sequence (Q15139 1-912): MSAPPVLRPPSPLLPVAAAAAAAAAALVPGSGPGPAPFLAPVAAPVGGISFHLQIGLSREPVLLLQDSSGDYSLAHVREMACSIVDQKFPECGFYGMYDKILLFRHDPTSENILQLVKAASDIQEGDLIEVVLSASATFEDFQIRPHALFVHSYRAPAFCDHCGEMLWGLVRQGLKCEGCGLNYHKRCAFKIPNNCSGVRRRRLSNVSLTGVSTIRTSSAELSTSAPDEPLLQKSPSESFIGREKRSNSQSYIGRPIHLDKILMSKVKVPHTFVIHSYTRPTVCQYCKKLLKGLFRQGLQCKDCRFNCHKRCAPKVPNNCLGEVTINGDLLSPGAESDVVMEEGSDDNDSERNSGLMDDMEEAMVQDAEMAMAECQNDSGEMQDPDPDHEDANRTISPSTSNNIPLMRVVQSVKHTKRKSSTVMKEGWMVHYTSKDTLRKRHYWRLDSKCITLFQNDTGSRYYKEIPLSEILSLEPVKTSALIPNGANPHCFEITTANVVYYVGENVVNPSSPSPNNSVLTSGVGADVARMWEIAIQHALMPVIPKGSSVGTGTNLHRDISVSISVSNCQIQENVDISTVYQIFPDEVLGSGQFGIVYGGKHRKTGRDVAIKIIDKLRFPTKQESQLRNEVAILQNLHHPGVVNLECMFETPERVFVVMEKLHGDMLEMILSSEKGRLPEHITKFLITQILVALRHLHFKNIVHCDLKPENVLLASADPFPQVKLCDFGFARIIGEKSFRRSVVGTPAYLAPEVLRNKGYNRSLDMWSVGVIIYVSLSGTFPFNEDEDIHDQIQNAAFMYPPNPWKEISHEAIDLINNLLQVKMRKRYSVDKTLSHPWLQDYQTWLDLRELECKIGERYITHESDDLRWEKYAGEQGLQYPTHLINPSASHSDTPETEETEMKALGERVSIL
# [2] = molecular target: T2, endogenous PKD1 (Ser916 phosphorylation) in LNCaP prostate cancer cells (Homo sapiens, UniProt Q15139); assay: Western blot of PMA-induced phospho-Ser916-PKD1 in LNCaP cells; format: cell-based; conditions: LNCaP cells; for inhibition at 50 µM: read-out: Inhibition of phosphorylation of Ser916-PKD1; for Concentration dependence of inhibition of PMA-induced endogenous PKD1 activity: Western blot
# T2 construct: phosphorylation of endogenously expressed PKD1 Ser^916; endogenous in cells; host or cells: LNCaP prostate cancer cells
# T2 sequence (Q15139 1-912): T1 sequence (Q15139 1-912)
# Protocol: Briefly, prostate cancer cells (LNCaP) were exposed to test compounds. Cells were lysed in buffer (200 mM Tris-HCl, pH 7.4, 100 µM 4-(2-aminoethyl) benzenesulfonyl fluoride, 1 mM EGTA, and 1% Triton X-100) and cell lysates were subjected to SDS-PAGE then electrotransferred to nitrocellulose membranes. Membranes were blocked with 5% nonfat milk in Tris-buffered saline. Membranes were probed with a primary antibody then followed by a secondary anti-mouse or anti-rabbit secondary antibody conjugated to horseradish peroxidase (1∶1000, Bio-Rad). Bands were visualized by the enhanced chemiluminescence Western blotting detection system (Amersham Biosciences). The primary antibodies included p-S916-PKD1 antibody (Millipore) and GAPDH (Enzo Life Sciences, Plymouth Meeting, PA).
# […] Whole cell lysates were immunoblotted for phosphorylated Ser^916-PKD1 with GAPDH serving as a loading control.
# [3] = molecular target: T1, recombinant human PKD1; assay: In vitro radiometric PKD1 kinase assay; format: biochemical
# Protocol: Kinase reactions were initiated with the addition of ATP (50 µM ATP, 1.0 µCi γ-^33P-ATP; Perkin Elmer, Boston, MA) and incubated for 20 min at 30°C. Twenty-five µL of the reaction was spotted onto Whatman P81 filter paper (Whatman Inc., Clifton, NJ). Filter papers were then washed three times in 0.5% phosphoric acid, air-dried, and counted using an LS6500 multi-purpose scintillation counter (Beckman Coulter, Fullerton, CA). IC50 determinations were performed using GraphPad Prism software 5.0. Radiometric PKD2 and PKD3 in vitro kinase assays were performed as previously described.
# [4] = molecular target: T1, recombinant human PKD1; assay: ATP competition studies (radiometric PKD1 assay, Michaelis-Menten/Lineweaver-Burk); format: biochemical; conditions: PKD1, ATP 12.5–1000 µM
# Protocol: For ATP competition studies, recombinant human PKD1 (1 ng/µL) and Syntide-2 substrate peptide (200 ng/µl) in kinase buffer were incubated with a concentration range of test compound. Kinase reactions were initiated with a concentration range of cold ATP (12.5–1000 µM) supplemented with 1.0 µCi γ-^33P-ATP (Perkin Elmer) and processed as described above. Enzyme inhibition was analyzed and visualized using the Michaelis-Menten and Lineweaver-Burk functions of GraphPad Prism 5.0.
# [5] = system: T3, recombinant human protein kinase D1 (PKD1); assay: IMAP-based PKD1 FP high throughput screening assay; format: biochemical; conditions: LOPAC screen, 10 µM, duplicate
# T3 construct: His; purchased Millipore (Billerica, MA)
# Protocol: An HTS IMAP-based PKD1 FP assay was developed and used to screen the PMLSC library to identify primary active compounds as previously described, [19]. In brief, the basis for the in vitro homogeneous IMAP PKD1 FP assay is the interaction of nanoparticles with covalent phosphorylated moieties generated when active PKD1 enzyme phosphorylates small, fluorescently labeled substrate peptides. The PKD1 kinase reactions were assembled stepwise by the addition of 3× substrate/ATP (300 nM/60 µM), compound and PKD1 enzyme (0.18 units/mL). Positive (MAX) and negative (MIN) control kinase reactions contained DMSO (1%) and Gö6976 (1 µM) or H-89 (100 µM) in 1% DMSO (final concentrations), respectively. All assay plates were setup in a standard 384-well configuration as previously described and all reagents were prepared in kinase reaction buffer. Kinase reactions were incubated for 90 min at room temperature and then were stopped with the addition of 18 µL of IMAP binding reagents (1∶400) in 1× binding buffer A (proprietary composition, Molecular Devices). These nanoparticles associate with substrate peptide phospho groups creating a larger phosphosubstrate–nanoparticle complex. The phosphosubstrate–nanoparticle binding can be quantified and is expressed as millipolarization (mP) units. […] Assay plates were centrifuged at 50 g for 1 min, incubated at room temperature for 2 hr and FP data were collected on a Molecular Devices SpectraMax M5 (excitation A485/emission A525). This assay was also used in secondary concentration response studies to initially determine IC50 concentrations of compounds. IC50 determinations were performed using GraphPad Prism software 5.0 (La Jolla, CA).
# A PKD1 IMAP FP assay was developed and optimized to identify small molecule inhibitors of PKD1 kinase activity. Using this assay system, we screened the LOPAC and PMLSC compound sets (196,425 total compounds) for novel PKD inhibitory chemotypes. […] For the LOPAC screen each compound was evaluated in duplicate at a single concentration (10 µM). […]
# [6] = system: AKT; assay: IMAP-based AKT counter screen; format: biochemical; conditions: concentrations up to 50 µM
# Description: (§1) It was also gratifying that, in general, our novel cell active PKD1 inhibitors appeared to be less promiscuous than PKD1 inhibitors having minimal to no cellular PKD1 inhibitory activity (Table 1). For example, CIDs 755673 and 1893668 display additional confirmed activity in six and seven, respectively, PubChem bioassays while CID 2011756 has confirmed activity in only one additional PubChem bioassay. […] In contrast, the remaining chemotypes registered as confirmed actives in 2–43 additional bioassays (Table 1). Additional chemical similarity searching, focusing on our four novel cell-active PKD1 inhibitory chemotypes, using MetaDrug also supports a comparative lack of promiscuity of these compounds.
# [7] = system: PLK1; assay: IMAP-based PLK1 counter screen; format: biochemical; conditions: concentrations up to 50 µM
# Description: as §1
# [8] = system: CDK7; assay: IMAP-based CDK7 counter screen; format: biochemical; conditions: concentrations up to 50 µM
# Description: as §1
# [9] = 50 µM compound 45 min, then PMA 10 nM 20 min
# [10] = radiometric PKD1 kinase assay, mean ± range or SD of 2–4 independent experiments, read-out: In vitro PKD1 IC50
compound,measurement,setting,value
NC(=O)c1cc(-c2ccnc(NC3CCCCC3)c2)nc(N2CCNCC2)c1 [BKPDi],Mechanism of Action (with respect to ATP),"[1]; known mechanism of action of the PKD inhibitor BKPDi, listed as BPKDi",ATP competitive
"NC(N)=NC(=O)c1nc(Cl)c(N)nc1N [CID 16230, amiloride chloride, reference compound]",Inhibition of phosphorylation of Ser916-PKD1 (in words),[2]; [9],little or no inhibition
same,inhibition at 50 µM,[2]; [9],< 50%
same,IC50,[3]; [10],2100 ± 150 nM
CC1(C)Oc2ccc3ccc(=O)oc3c2-c2cn[nH]c21 [CID 646236],Mechanism of Action (with respect to ATP),[4],ATP competitive
same,IC50,[3]; [10],1100 ± 100 nM
O=C1c2ccccc2-c2onc3ccc(NCCCn4ccnc4)c1c23 [CID 663844],Inhibition of phosphorylation of Ser916-PKD1 (in words),[2]; [9],little or no inhibition
same,IC50,[3]; [10],4800 ± 600 nM
O=C1NCCCc2c1oc1ccc(O)cc21 [CID 755673],Mechanism of Action (with respect to ATP),[1]; previously determined,Non-ATP competitive
same,Inhibition of phosphorylation of Ser916-PKD1 (in words),[2]; [9],confirmed as a cell active PKD1 inhibitor
same,Concentration dependence of inhibition of PMA-induced endogenous PKD1 activity,[2],concentration-dependent inhibition
"CCN1/C(=C/C(C)=O)Sc2ccc(OC)cc21 [CID 1893668, (1Z)-1-(3-ethyl-5-methoxy-1,3-benzothiazol-2-ylidene)propan-2-one, reference compound]",inhibition at 50 µM,[2]; [9],> 50%
same,EC50,"[2]; PMA stimulation, n = 3, read-out: Cellular EC50 (phospho-Ser916-PKD1)",52000 ± 14000 nM
same,Concentration dependence of inhibition of PMA-induced endogenous PKD1 activity,[2],concentration-dependent inhibition
same,IC50,[3]; [10],1700 ± 300 nM
CCC1=NNc2cccc3c(OC)ccc1c23 [CID 2876479],Mechanism of Action (with respect to ATP),[4],ATP competitive
same,Inhibition of phosphorylation of Ser916-PKD1 (in words),[2]; [9],some cellular inhibition
same,IC50,[3]; [10],2200 ± 1800 nM
CC1Cc2ccccc2N1c1ncnc(N)c1[N+](=O)[O-] (stereo not shown) [CID 2958734],Mechanism of Action (with respect to ATP),[4],ATP competitive
same,Inhibition of phosphorylation of Ser916-PKD1 (in words),[2]; [9],little or no inhibition
same,IC50,[3]; [10],6100 ± 200 nM
Clc1cncc(Cl)c1NNc1ccncc1 [CID 4438738],Mechanism of Action (with respect to ATP),[4],ATP competitive
same,IC50,[3]; [10],3300 ± 100 nM
Nc1nc2ccc([N+](=O)[O-])c(N)c2s1 [CID 5086667],Mechanism of Action (with respect to ATP),[4],ATP-competitive inhibitor
same,Mechanism of Action (with respect to ATP),[4]; listed as 5086667,ATP competitive
same,Inhibition of phosphorylation of Ser916-PKD1 (in words),[2]; [9],some cellular inhibition
"NC(=O)c1cn([C@@H]2O[C@H](CO)[C@@H](O)[C@H]2O)c2ncnc(N)c12 [CID 9549170, sangivamycin, reference compound]",Mechanism of Action (with respect to ATP),[4],ATP competitive
same,IC50,[3],400 ± 300 nM
CC1CNCCN1S(=O)(=O)c1cccc2cnccc12 (stereo not shown) [H7],Inhibition of control signal (primary active),[5],≥ 50%
CNCCNS(=O)(=O)c1cccc2cnccc12 [H8],Inhibition of control signal (primary active),[5],≥ 50%
O=S(=O)(NCCNC/C=C/c1ccc(Br)cc1)c1cccc2cnccc12 [H89],Inhibition of control signal (primary active),[5],≥ 50%
"(6Z)-6-[4-(3-aminopropylamino)-6-methyl-1H-pyrimidin-2-ylidene]cyclohexa-2,4-dien-1-one [CID 5389142]",AKT kinase inhibition,[6],no kinase inhibition
same,PLK1 kinase inhibition,[7],no kinase inhibition
same,Mechanism of Action (with respect to ATP),[4],ATP competitive
same,Inhibition of phosphorylation of Ser916-PKD1,[2]; [9],greater than 50%
same,Concentration dependence of inhibition of PMA-induced endogenous PKD1 activity,[2],concentration-dependent inhibition
same,CDK7 kinase inhibition,[8],no kinase inhibition
